From US12459922B2 (Gilead Sciences, Inc., priority 2022, dated 2025)

The molecules below were run on endogenous cellular STAT1 (phosphorylated at Tyr701) in NCI-H1373 cells (assay: Phospho-STAT1 (Tyr701) LANCE Ultra TR-FRET Detection Assay). Conditions: 48 hours, phospho-STAT1 (Tyr701) induction, read-out: NH1373 pSTAT1 EC50.
Assay type: cell-based

EC50 [nM] | SMILES
4.35 | Cc1cnc(-c2cc3ccn(C[C@@H]4CCC[C@H](Nc5cn[nH]c(=O)c5C(F)(F)F)C4)c(=O)c3cc2F)nc1 [Example 240]
9.44 | Cc1cnc(-c2cc3ccn(C[C@@H]4CCC[C@H](Nc5cn[nH]c(=O)c5C(F)(F)F)C4)c(=O)c3cc2F)nc1 [Example 242]

Same assay, conditions: Homo sapiens, NCI-H1373, 48 h, phospho-STAT1 (Tyr701) induction, read-out: NH1373 pSTAT1 EC50

EC50 [nM] | SMILES
1.55 | Nc1nc(-c2cc3ccn(C[C@@H]4CCC[C@H](Nc5cn[nH]c(=O)c5C(F)(F)F)C4)c(=O)c3c(F)c2F)ncc1C(F)(F)F [Example 234]
4.38 | O=c1[nH]ncc(N[C@H]2CCC[C@@H](Cn3cnc4cc(-c5ncc(C(F)(F)F)cn5)c(F)cc4c3=O)C2)c1C(F)(F)F [Example 235]
32.2 | Nc1nc(-c2cc3ncn(C[C@@H]4CCC[C@H](Nc5cn[nH]c(=O)c5C(F)(F)F)C4)c(=O)c3cc2F)ncc1C(F)F [Example 236]
5.37 | Nc1nc(-c2cc3ccn(C[C@@H]4CCC[C@H](Nc5cn[nH]c(=O)c5C(F)(F)F)C4)c(=O)c3c(F)c2F)ncc1C(F)F [Example 239]
6.38 | O=c1[nH]ncc(N[C@H]2CCC[C@@H](Cn3ccc4cc(-c5ncc(C6CC6)cn5)c(F)cc4c3=O)C2)c1C(F)(F)F [Example 241]
2.98 | Nc1nc(-c2cc3ccn(C[C@@H]4CCC[C@H](Nc5cn[nH]c(=O)c5C(F)(F)F)C4)c(=O)c3c(F)c2F)ncc1Cl [Example 243, 6-(4-amino-5-chloropyrimidin-2-yl)-7,8-difluoro-2-(((1R,3S)-3-((6-oxo-5-(trifluoromethyl)-1,6-dihydropyridazin-4-yl)amino)cyclohexyl)methyl)isoquinolin-1(2H)-one]
5.19 | O=c1[nH]ncc(N[C@H]2CCC[C@@H](Cn3cnc4cc(-c5ncc(C(F)F)cn5)c(F)cc4c3=O)C2)c1C(F)(F)F [Example 244, 7-(5-(difluoromethyl)pyrimidin-2-yl)-6-fluoro-3-(((1R,3S)-3-((6-oxo-5-(trifluoromethyl)-1,6-dihydropyridazin-4-yl)amino)cyclohexyl)methyl)quinazolin-4(3H)-one]
8.13 | Nc1nc(-c2cc3ccn(C[C@@H]4CCC[C@H](Nc5cn[nH]c(=O)c5C(F)(F)F)C4)c(=O)c3c(F)c2F)ncc1OC(F)F [Example 245, 6-(4-amino-5-(difluoromethoxy)pyrimidin-2-yl)-7,8-difluoro-2-(((1R,3S)-3-((6-oxo-5-(trifluoromethyl)-1,6-dihydropyridazin-4-yl)amino)cyclohexyl)methyl)isoquinolin-1(2H)-one]
3.78 | O=c1[nH]ncc(N[C@H]2CCC[C@@H](Cn3ccc4cc(-c5ncc(Cl)cn5)c(F)c(F)c4c3=O)C2)c1C(F)(F)F [Example 246, 6-(5-chloropyrimidin-2-yl)-7,8-difluoro-2-(((1R,3S)-3-((6-oxo-5-(trifluoromethyl)-1,6-dihydropyridazin-4-yl)amino)cyclohexyl)methyl)isoquinolin-1(2H)-one]
8.8 | O=c1[nH]ncc(N[C@H]2CCC[C@@H](Cn3cnc4cc(-c5ncc(Cl)cn5)c(F)cc4c3=O)C2)c1C(F)(F)F [Example 247, 7-(5-chloropyrimidin-2-yl)-6-fluoro-3-(((1R,3S)-3-((6-oxo-5-(trifluoromethyl)-1,6-dihydropyridazin-4-yl)amino)cyclohexyl)methyl)quinazolin-4(3H)-one]
3.44 | O=c1[nH]ncc(N[C@H]2CCC[C@@H](Cn3ccc4cc(-c5ncc(Cl)cn5)c(F)cc4c3=O)C2)c1C(F)(F)F [Example 248, 6-(5-chloropyrimidin-2-yl)-7-fluoro-2-(((1R,3S)-3-((6-oxo-5-(trifluoromethyl)-1,6-dihydropyridazin-4-yl)amino)cyclohexyl)methyl)isoquinolin-1(2H)-one]
32.4 | Nc1nc(-c2cc3ccn(C[C@@H]4CCC[C@H](Nc5cn[nH]c(=O)c5C(F)(F)F)C4)c(=O)c3cc2F)cnc1C(F)(F)F [Example 249, 6-(6-amino-5-(trifluoromethyl)pyrazin-2-yl)-7-fluoro-2-(((1R,3S)-3-((6-oxo-5-(trifluoromethyl)-1,6-dihydropyridazin-4-yl)amino)cyclohexyl)methyl)isoquinolin-1(2H)-one]
4.71 | Nc1nc(-c2cc3ccn(C[C@@H]4CCC[C@H](Nc5cn[nH]c(=O)c5C(F)(F)F)C4)c(=O)c3cc2F)ncc1Cl [Example 250, 6-(4-amino-5-chloropyrimidin-2-yl)-7-fluoro-2-(((1R,3S)-3-((6-oxo-5-(trifluoromethyl)-1,6-dihydropyridazin-4-yl)amino)cyclohexyl)methyl)isoquinolin-1(2H)-one]
47.3 | Nc1nc(-c2cc3ccn(C[C@@H]4CCC[C@H](Nc5cn[nH]c(=O)c5C(F)(F)F)C4)c(=O)c3cc2F)ccc1C(F)(F)F [Example 251, 6-(6-amino-5-(trifluoromethyl)pyridin-2-yl)-7-fluoro-2-(((1R,3S)-3-((6-oxo-5-(trifluoromethyl)-1,6-dihydropyridazin-4-yl)amino)cyclohexyl)methyl)isoquinolin-1(2H)-one]
16.2 | Nc1nc(-c2cc3ccn(C[C@@H]4CCC[C@H](Nc5cn[nH]c(=O)c5C(F)(F)F)C4)c(=O)c3c(F)c2F)ccc1C(F)(F)F [Example 252, 6-(6-amino-5-(trifluoromethyl)pyridin-2-yl)-7,8-difluoro-2-(((1R,3S)-3-((6-oxo-5-(trifluoromethyl)-1,6-dihydropyridazin-4-yl)amino)cyclohexyl)methyl)isoquinolin-1(2H)-one]
9.41 | O=c1[nH]ncc(N[C@H]2CCC[C@@H](Cn3ccc4cc(-c5cnc(C(F)F)cn5)c(F)c(F)c4c3=O)C2)c1C(F)(F)F [Example 253, 6-(5-(difluoromethyl)pyrazin-2-yl)-7,8-difluoro-2-(((1R,3S)-3-((6-oxo-5-(trifluoromethyl)-1,6-dihydropyridazin-4-yl)amino)cyclohexyl)methyl)isoquinolin-1(2H)-one]
31.9 | Nc1nc(-c2cc3ncn(C[C@@H]4CCC[C@H](Nc5cn[nH]c(=O)c5C(F)(F)F)C4)c(=O)c3cc2F)cnc1C(F)(F)F [Example 254, 7-(6-amino-5-(trifluoromethyl)pyrazin-2-yl)-6-fluoro-3-(((1R,3S)-3-((6-oxo-5-(trifluoromethyl)-1,6-dihydropyridazin-4-yl)amino)cyclohexyl)methyl)quinazolin-4(3H)-one]
9.1 | COc1cnc(-c2cc3ccn(C[C@@H]4CCC[C@H](Nc5cn[nH]c(=O)c5C(F)(F)F)C4)c(=O)c3cc2F)nc1N [Example 255, 6-(4-amino-5-methoxypyrimidin-2-yl)-7-fluoro-2-(((1R,3S)-3-((6-oxo-5-(trifluoromethyl)-1,6-dihydropyridazin-4-yl)amino)cyclohexyl)methyl)isoquinolin-1(2H)-one]
30.2 | O=c1[nH]ncc(N[C@H]2CCC[C@@H](Cn3ccc4cc(-c5cnc(C(F)(F)F)cn5)c(F)cc4c3=O)C2)c1C(F)(F)F [Example 256, 7-fluoro-2-(((1R,3S)-3-((6-oxo-5-(trifluoromethyl)-1,6-dihydropyridazin-4-yl)amino)cyclohexyl)methyl)-6-(5-(trifluoromethyl)pyrazin-2-yl)isoquinolin-1(2H)-one]
25.1 | Nc1nc(-c2cc3ccn(C[C@@H]4CCC[C@H](Nc5cn[nH]c(=O)c5C(F)(F)F)C4)c(=O)c3c(F)c2F)cnc1C(F)(F)F [Example 257, 6-(6-amino-5-(trifluoromethyl)pyrazin-2-yl)-7,8-difluoro-2-(((1R,3S)-3-((6-oxo-5-(trifluoromethyl)-1,6-dihydropyridazin-4-yl)amino)cyclohexyl)methyl)isoquinolin-1(2H)-one]
31.7 | O=c1[nH]ncc(N[C@H]2CCC[C@@H](Cn3ccc4cc(-c5cnc(C(F)F)cn5)c(F)cc4c3=O)C2)c1C(F)(F)F [Example 258, 6-(5-(difluoromethyl)pyrazin-2-yl)-7-fluoro-2-(((1R,3S)-3-((6-oxo-5-(trifluoromethyl)-1,6-dihydropyridazin-4-yl)amino)cyclohexyl)methyl)isoquinolin-1(2H)-one]
183 | O=c1[nH]ncc(N[C@H]2CCC[C@@H](Cn3ccc4cc(-c5cnc(OC(F)F)cn5)c(F)cc4c3=O)C2)c1C(F)(F)F [Example 259, 6-(5-(difluoromethoxy)pyrazin-2-yl)-7-fluoro-2-(((1R,3S)-3-((6-oxo-5-(trifluoromethyl)-1,6-dihydropyridazin-4-yl)amino)cyclohexyl)methyl)isoquinolin-1(2H)-one]
12.7 | Nc1nc(-c2cc3ccn(C[C@@H]4CCC[C@H](Nc5cn[nH]c(=O)c5C(F)(F)F)C4)c(=O)c3cc2F)ncc1OC(F)F [Example 260, 6-(4-amino-5-(difluoromethoxy)pyrimidin-2-yl)-7-fluoro-2-(((1R,3S)-3-((6-oxo-5-(trifluoromethyl)-1,6-dihydropyridazin-4-yl)amino)cyclohexyl)methyl)isoquinolin-1(2H)-one]
6.1 | Nc1nc(-c2cc3ncn(C[C@@H]4CCC[C@H](Nc5cn[nH]c(=O)c5C(F)(F)F)C4)c(=O)c3cc2F)ncc1Cl [Example 261, 7-(4-amino-5-chloropyrimidin-2-yl)-6-fluoro-3-(((1R,3S)-3-((6-oxo-5-(trifluoromethyl)-1,6-dihydropyridazin-4-yl)amino)cyclohexyl)methyl)quinazolin-4(3H)-one]
193 | Cc1ncc(-c2cc3ccn(C[C@@H]4CCC[C@H](Nc5cn[nH]c(=O)c5C(F)(F)F)C4)c(=O)c3cc2F)nc1N [Example 262, 6-(6-amino-5-methylpyrazin-2-yl)-7-fluoro-2-(((1R,3S)-3-((6-oxo-5-(trifluoromethyl)-1,6-dihydropyridazin-4-yl)amino)cyclohexyl)methyl)isoquinolin-1(2H)-one]
122 | COc1ncc(-c2cc3ccn(C[C@@H]4CCC[C@H](Nc5cn[nH]c(=O)c5C(F)(F)F)C4)c(=O)c3cc2F)nc1N [Example 263, 6-(6-amino-5-methoxypyrazin-2-yl)-7-fluoro-2-(((1R,3S)-3-((6-oxo-5-(trifluoromethyl)-1,6-dihydropyridazin-4-yl)amino)cyclohexyl)methyl)isoquinolin-1(2H)-one]
